Reference: patent publication US11753410B2, “Hormone receptor modulators for treating metabolic mutagenic and fibrotic conditions and disorders” (priority 2017, dated 2023)

Experiments:
[1] = molecular target: T1, human Farnesoid X receptor ligand-binding domain/Gal4 DNA binding domain chimera (Homo sapiens, UniProt Q96RI1); test: Cell-based assay of FXR activation (FXR-UAS-bla HEK 293T beta-lactamase reporter); conditions: for Emax: HEK-293T, read-out: Cellular % Efficacy
T1 construct: host or cells: FXR-UAS-bla HEK 293T (CellSensor UAS-bla HEK 293T)
T1 sequence (Q96RI1 262-486 limits assumed): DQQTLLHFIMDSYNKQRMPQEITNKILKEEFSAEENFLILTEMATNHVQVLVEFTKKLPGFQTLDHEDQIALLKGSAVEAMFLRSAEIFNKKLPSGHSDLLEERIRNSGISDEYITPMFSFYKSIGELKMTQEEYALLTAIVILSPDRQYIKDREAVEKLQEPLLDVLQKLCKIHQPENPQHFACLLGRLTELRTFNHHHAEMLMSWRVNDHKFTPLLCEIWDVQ
Method: FXR activation was measured using a cell line and procedure obtained from Life Technologies (Cat #K1691). […] Activation of FXR by bound ligands results in transcriptional activation of the beta-lactamase reporter gene, which is detected via assay of beta-lactamase activity.
Cells are harvested and diluted into assay medium containing phenol red-free DMEM supplemented with 2% Charcoal-stripped FBS, pyruvate, non-essential amino acids. Cells are then transferred to a 384 well assay plate. Test compounds are dissolved in DMSO and a 3-fold serial dilution series is generated, then further diluted into assay medium. Compounds in assay medium are added to cells in the 384 well plate and allowed to incubate 16 h at 37 C in the presence of 5% CO2.
A FRET-based […] (CCF4) is loaded into cells as its acetomethoxy ester. Intracellular esterases liberate free CCF4, a cephalosporin core linking 7-hydroxycoumarin to fluorescein. In the presence of beta-lactamase activity produced in the presence of FXR agonists, cleavage of CCF4 spatially separates the two dyes and disrupts FRET, so that exciting the coumarin at 409 nm now produces a blue fluorescence signal at 447 nm. The change in FRET signal is plotted against the test compound concentration and fit to a 3-parameter logistical equation.

[2] = molecular target: T2, ligand binding domain of human FXR (Homo sapiens, UniProt Q96RI1); test: biochemical; conditions: for Emax: extent of activation relative to GW4064, read-out: Ligand Binding % Efficacy; for EC50: −log EC50, concentration required to produce 50% activation, FRET 520 nm/495 nm, 1 hour at room temperature, read-out: Ligand Binding pEC50 (converted)
T2 construct: purchased Thermofisher (LanthaScreen) PV4833
T2 sequence (Q96RI1 262-486 limits assumed): T1 sequence (Q96RI1 262-486 limits assumed)

| Structure (SMILES) | EC50 [1] [nM] | Emax [1] [%] | Emax [2] [%] | EC50 [2] [nM] |
| --- | --- | --- | --- | --- |
| O=C(O)c1cc([C@@H]2CCOC2)c2nc(N3C[C@@H]4C[C@H]3C[C@H]4OCc3c(-c4c(Cl)cccc4Cl)nnn3C3CC3)sc2c1 (single isomer, unassigned) [Compound I-66] | 15.8 | 110 | 140 | 15.8 |
| O=C(O)CCc1ccc(N2C[C@@H]3C[C@H]2C[C@H]3OCc2c(C3CC3)cnn2-c2c(Cl)cccc2Cl)c(F)c1 [Compound I-33, 3-{4-[(1S,4S,5R)-5-{[4-cyclopropyl-1-(2,6-dichlorophenyl)-1H-pyrazol-5-yl]methoxy}-2-azabicyclo[2.2.1]heptan-2-yl]-3-fluorophenyl}propanoic acid] | 3.98 | 99 | 132 | 39.8 |
| O=C(O)CCc1ccc(N2C[C@@H]3C[C@H]2C[C@H]3OCc2c(-c3c(Cl)cccc3Cl)cnn2C2CC2)c(F)c1 [Compound I-44, 3-{4-[(1S,4S,5R)-5-{[1-cyclopropyl-4-(2,6-dichlorophenyl)-1H-pyrazol-5-yl]methoxy}-2-azabicyclo[2.2.1]heptan-2-yl]-3-fluorophenyl}propanoic acid] | < 31.6 |  | 96 | < 631 |
| O=C(O)c1cc(C2CCOCC2)c2nc(N3C[C@@H]4C[C@H]3C[C@H]4OCc3c(-c4c(Cl)cccc4Cl)cnn3C3CC3)sc2c1 [Compound I-49, 2-[(1S,4S,5R)-5-{[1-cyclopropyl-4-(2,6-dichlorophenyl)-1H-pyrazol-5-yl]methoxy}-2-azabicyclo[2.2.1]heptan-2-yl]-4-(oxan-4-yl)-1,3-benzothiazole-6-carboxylic acid] | < 63.1 | 105 | 82 | 100 |
| O=C(O)c1ccc(N2C[C@@H]3C[C@H]2C[C@H]3OCc2c(-c3c(Cl)cccc3Cl)cnn2C2CC2)cc1F [Compound I-42, 4-[(1S,4S,5R)-5-{[1-cyclopropyl-4-(2,6-dichlorophenyl)-1H-pyrazol-5-yl]methoxy}-2-azabicyclo[2.2.1]heptan-2-yl]-2-fluorobenzoic acid] | 398 | 110 | 102 | 251 |
| O=C(O)c1cc([C@H]2CCOC2)c2nc(N3C[C@@H]4C[C@H]3C[C@H]4OCc3c(-c4c(Cl)cccc4Cl)cnn3C3CC3)sc2c1 (single isomer, unassigned) [Compound I-51] | 158 | 100 | 96 | 251 |
| O=C(O)c1cc([C@@H]2CCOC2)c2nc(N3C[C@@H]4C[C@H]3C[C@H]4OCc3c(-c4c(Cl)cccc4Cl)cnn3C3CC3)sc2c1 (single isomer, unassigned) [Compound I-50] | 100 | 100 | 78 | 100 |
| O=C(O)c1cc(C2CCOCC2)c2nc(N3C[C@@H]4C[C@H]3C[C@H]4OCc3c(-c4c(Cl)cccc4Cl)nnn3C3CC3)sc2c1 [Compound I-67, 2-((1S,4S,5R)-5-((1-cyclopropyl-4-(2,6-dichlorophenyl)-1H-1,2,3-triazol-5-yl)methoxy)-2-azabicyclo[2.2.1]heptan-2-yl)-4-(tetrahydro-2H-pyran-4-yl)benzo[d]thiazole-6-carboxylic acid] | 10 | 111 | 148 | 20 |
| O=C(NS(=O)(=O)CC1CCOC1)c1ccc(N2C[C@@H]3C[C@H]2C[C@H]3OCc2c(C3CC3)cnn2-c2c(Cl)cccc2Cl)cc1 (stereo partly drawn) [Compound I-24, 4-((1S,4S,5R)-5-((4-cyclopropyl-1-(2,6-dichlorophenyl)-1H-pyrazol-5-yl)methoxy)-2-azabicyclo[2.2.1]heptan-2-yl)-N-(((tetrahydrofuran-3-yl)methyl)sulfonyl)benzamide] | 2.51 | 107 | 164 | 3.16 |
| O=C(O)c1cc(F)c2nc(N3C[C@@H]4C[C@H]3C[C@H]4OCc3c(-c4c(Cl)cccc4Cl)cnn3C3CC3)sc2c1 [Compound I-47, 2-[(1S,4S,5R)-5-{[1-cyclopropyl-4-(2,6-dichlorophenyl)-1H-pyrazol-5-yl]methoxy}-2-azabicyclo[2.2.1]heptan-2-yl]-4-fluoro-1,3-benzothiazole-6-carboxylic acid] | 398 | 94 | 62 | 251 |
| O=C(O)c1cc(C2CCCC2)c2nc(N3C[C@@H]4C[C@H]3C[C@H]4OCc3c(-c4c(Cl)cccc4Cl)nnn3C3CC3)sc2c1 [Compound I-69, 4-cyclopentyl-2-[(1S,4S,5R)-5-{[1-cyclopropyl-4-(2,6-dichlorophenyl)-1H-1,2,3-triazol-5-yl]methoxy}-2-azabicyclo[2.2.1]heptan-2-yl]-1,3-benzothiazole-6-carboxylic acid] | 2.51 | 111 | 168 | 6.31 |
| O=C(NS(=O)(=O)C1CCOC1)c1ccc(N2C[C@@H]3C[C@H]2C[C@H]3OCc2c(C3CC3)cnn2-c2c(Cl)cccc2Cl)cc1 (stereo partly drawn) [Compound I-23, 4-((1S,4S,5R)-5-((4-cyclopropyl-1-(2,6-dichlorophenyl)-1H-pyrazol-5-yl)methoxy)-2-azabicyclo[2.2.1]heptan-2-yl)-N-((tetrahydrofuran-3-yl)sulfonyl)benzamide] | 2.51 | 111 | 164 | 3.98 |
| O=C(O)c1cc(OC2CC2)c2nc(N3C[C@@H]4C[C@H]3C[C@H]4OCc3c(C4CC4)cnn3-c3c(Cl)cccc3Cl)sc2c1 [Compound I-31, 4-cyclopropoxy-2-[(1S,4S,5R)-5-{[4-cyclopropyl-1-(2,6-dichlorophenyl)-1H-pyrazol-5-yl]methoxy}-2-azabicyclo[2.2.1]heptan-2-yl]-1,3-benzothiazole-6-carboxylic acid] | 0.2 | 110 | 116 | 1.58 |
| O=C(O)c1cc([C@@H]2CCOC2)c2nc(N3C[C@@H]4C[C@H]3C[C@H]4OCc3c(C4CC4)nnn3-c3c(Cl)cccc3Cl)sc2c1 (single isomer, unassigned) [Compound I-59] | 2.51 | 100 | 137 | 1.58 |
| O=C(O)c1ccc(N2C[C@@H]3C[C@H]2C[C@H]3OCc2c(C3CC3)cnn2-c2c(Cl)cccc2Cl)cc1F [Compound I-2, 4-[(1S,4S,5R)-5-{[4-cyclopropyl-1-(2,6-dichlorophenyl)-1H-pyrazol-5-yl]methoxy}-2-azabicyclo[2.2.1]heptan-2-yl]-2-fluorobenzoic acid] | 2 | 104 | 133 | 5.01 |
| O=C(O)c1ccc(N2C[C@@H]3C[C@H]2C[C@H]3OCc2c(-c3c(Cl)cccc3Cl)cnn2C2CC2)cc1 [Compound I-41, 4-[(1S,4S,5R)-5-{[1-cyclopropyl-4-(2,6-dichlorophenyl)-1H-pyrazol-5-yl]methoxy}-2-azabicyclo[2.2.1]heptan-2-yl]benzoic acid] | 794 | 117 | 96 | 316 |
| CS(=O)(=O)CCNC(=O)c1ccc(N2C[C@@H]3C[C@H]2C[C@H]3OCc2c(-c3c(Cl)cccc3Cl)cnn2C2CC2)cc1F [Compound I-45, 4-[(1S,4S,5R)-5-{[1-cyclopropyl-4-(2,6-dichlorophenyl)-1H-pyrazol-5-yl]methoxy}-2-azabicyclo[2.2.1]heptan-2-yl]-2-fluoro-N-(2-methanesulfonylethyl)benzamide] | 1000 | 92 | 57 | 398 |
| O=C(O)c1ccc(N2C[C@@H]3C[C@H]2C[C@H]3OCc2c(C3CC3)nnn2-c2c(Cl)cccc2Cl)cc1 [Compound I-52, 4-[(1S,4S,5R)-5-{[4-cyclopropyl-1-(2,6-dichlorophenyl)-1H-1,2,3-triazol-5-yl]methoxy}-2-azabicyclo[2.2.1]heptan-2-yl]benzoic acid] | 3.98 | 106 | 140 | 6.31 |
| O=C(O)CCc1ccc(N2C[C@@H]3C[C@H]2C[C@H]3OCc2c(C3CC3)cnn2-c2c(Cl)cccc2Cl)cc1F [Compound I-34, 3-{4-[(1S,4S,5R)-5-{[4-cyclopropyl-1-(2,6-dichlorophenyl)-1H-pyrazol-5-yl]methoxy}-2-azabicyclo[2.2.1]heptan-2-yl]-2-fluorophenyl}propanoic acid] | 10 | 98 | 144 | 100 |
| O=C(O)c1cc(O[C@H]2CCOC2)c2nc(N3C[C@@H]4C[C@H]3C[C@H]4OCc3c(C4CC4)nnn3-c3c(Cl)cccc3Cl)sc2c1 [Compound I-61, 2-[(1S,4S,5R)-5-{[4-cyclopropyl-1-(2,6-dichlorophenyl)-1H-1,2,3-triazol-5-yl]methoxy}-2-azabicyclo[2.2.1]heptan-2-yl]-4-[(3S)-oxolan-3-yloxy]-1,3-benzothiazole-6-carboxylic acid] | 25.1 | 107 | 158 | 3.98 |
